{
  "source": "patent US9788549B2",
  "about": "“Broad spectrum disinfectant” (DI[…] LLC, priority 2014, dated 2017)",
  "key": {"[1]": {"details": "solution has the proper amount of sodium polyphosphate"}, "[2]": {"details": "atmospheric pressure, 20° C.; cited from earlier work"}},
  "data": [
    {"smiles": "[O][Cl+][O-]", "note": "[Chlorine dioxide]", "values": [
      {"measurement": "stability of ClO2 in solution", "setting": "[1]", "value": "remain stable for years"},
      {"measurement": "solubility in water", "setting": "[2]", "value": "approximately 70 g/l"}
    ]}
  ]
}
